In patent US20050143291A1, “Methods and compositions for modulating apoptosis” (priority 2003, published 2005):

Columns and labels:
[1] = test system: GRP78 Overexpression cells; test: % Survival (Colony Assay), GRP78 overexpression; format: cell-based; conditions: for % Survival (Colony Assay): GRP78 Overexpression; for effect of GRP78 overexpression on sensitivity to the drug: GRP78 overexpression versus control
Protocol: (§1) Experiments were also performed to determine the anti-apoptotic effect conferred by overexpression of GRP78. This task was completed.
(§2) Clonogenic Survival Assays—Four thousand cells were seeded into 10-cm-diameter dishes. […] After drug treatment, the cells were grown in fresh medium for 10 to 14 days. The colonies were washed with ice-cold PBS, fixed with methanol, and stained with 10% Giemsa staining solution. The surviving fraction was determined by dividing the number of the surviving colonies in the drug-treated cells by the number of colonies in the non-treated control groups.

Control cells = test: % Survival (Colony Assay), control cells; format: cell-based
Protocol: as §1, §2

caspase-7 = test: In vitro caspase-7 activation assay, cell-free extracts with cytochrome c and dATP; format: biochemical, Chinese hamster
Protocol: FIG. 5, Panel C depicts cytoplasmic extracts prepared from CHO and C.1 cells and incubated with (+) or without (−) 10 μM cytochrome c and the various amounts of dATP (mM) as indicated.
Among the executor caspases, caspase-7 has been reported to be associated with the ER. Upon induction of apoptosis, procaspase-7 (35 kDa) is first converted into a 32-kDa intermediate, which is further processed into active 20- and 11-kDa subunits. […] Upon longer exposure of the autoradiogram, the active 20- and 11-kDa forms were evident in the etoposide-treated cells. When GRP78 was overexpressed, a low level of caspase-7 activation was detected in both the non-treated and etoposide-treated cells. […] In addition, upon addition of cytochrome c, caspase-7 activation was higher in CHO cells than C.1 cells, as evidenced by the increase in the active 20- and 11-kDa forms in the CHO samples compared with the C.1 samples.
The cells were suspended in 5 volumes of a hypotonic buffer (5 mM Tris-HCl, pH 7.4, 5 mM KCl, 1.5 mM MgCl2, 0.1 mM EGTA, pH 8.0, and 1 mM dithiothreitol) in the presence of 2 μg/ml leupeptin, pepstatin, and aprotinin protease inhibitors. After incubation on ice for 20 min, sucrose was added to a final concentration of 250 mM, and the cells were disrupted by douncing eight times in a 1-ml Wheaton Dounce homogenizer. The homogenate was centrifuged twice at […] for 10 min. […]

CHO cells = test: Cell cycle analysis (FACS), CHO cells; format: cell-based, Chinese hamster; conditions: CHO cells treated with UPR inducer, versus exponentially growing cells
Protocol: (§3) Cell Cycle Analysis—Following seeding, exponentially growing cells were trypsinized at different days and fixed in 70% ethanol. The fixed cells were treated with PBS containing 0.1% (v/v) Triton X-100, 0.2 mg/ml DNase-free RNase, and 20 μg/ml propidium iodide (PI) for 30 min at room temperature. The cell cycle distributions were analyzed by fluorescence-activated cell sorting (FACS) analysis (FACstar; BD Biosciences). The cell cycle distribution measurements were repeated three to four times.
(§4) In both the vector-transfected and GRP78 overexpressing cells, the percentage of G1, S, and G2 cells is similar.

T24/83 cells = test: Cell cycle analysis (FACS), T24/83 cells; format: cell-based, human; conditions: T24/83 cells treated with UPR inducer
Protocol: as §3, §4

MDA-MB-435 cells = test: Etoposide-mediated cell death after siRNA in breast cancer cells; format: cell-based, human
Excerpt: (§5) This translates to more death in the cells treated with Grp78(II) siRNA than control siRNA targeted against the unrelated green fluorescence protein (FIG. 16).

GRP78 [2] = test: Specificity of Grp78 siRNA in 293T cells (Western blot of GRP78, GRP94, HSP70); format: cell-based, human; conditions: β-actin loading control
Excerpt: (§6) The concentrations of siRNA Grp78 II used were indicated on top.
When blasted against the human genomic sequence, this sequence is unique and in principle, should not affect any other human gene. […] The level of β-actin was used as loading control.

GRP78 [3] = test: Suppression of GRP78 level by siRNA in MDA-MB-435 cells (Western blot); format: cell-based, human
Excerpt: as §6, §5

[4] = molecular target: T1, glucose regulated protein 78 (GRP78), wild-type, as present in CHO cells (endogenous) and C.1 cells … (hamster, UniProt G3I8R9 19-654); test: co-immunoprecipitation from CHO and C.1 whole cell extracts, Western blot
T1 construct: Protein in cell lysates used for co-immunoprecipitation, not purified; also called BiP; wild-type GRP78
T1 sequence (G3I8R9 19-654 limits assumed): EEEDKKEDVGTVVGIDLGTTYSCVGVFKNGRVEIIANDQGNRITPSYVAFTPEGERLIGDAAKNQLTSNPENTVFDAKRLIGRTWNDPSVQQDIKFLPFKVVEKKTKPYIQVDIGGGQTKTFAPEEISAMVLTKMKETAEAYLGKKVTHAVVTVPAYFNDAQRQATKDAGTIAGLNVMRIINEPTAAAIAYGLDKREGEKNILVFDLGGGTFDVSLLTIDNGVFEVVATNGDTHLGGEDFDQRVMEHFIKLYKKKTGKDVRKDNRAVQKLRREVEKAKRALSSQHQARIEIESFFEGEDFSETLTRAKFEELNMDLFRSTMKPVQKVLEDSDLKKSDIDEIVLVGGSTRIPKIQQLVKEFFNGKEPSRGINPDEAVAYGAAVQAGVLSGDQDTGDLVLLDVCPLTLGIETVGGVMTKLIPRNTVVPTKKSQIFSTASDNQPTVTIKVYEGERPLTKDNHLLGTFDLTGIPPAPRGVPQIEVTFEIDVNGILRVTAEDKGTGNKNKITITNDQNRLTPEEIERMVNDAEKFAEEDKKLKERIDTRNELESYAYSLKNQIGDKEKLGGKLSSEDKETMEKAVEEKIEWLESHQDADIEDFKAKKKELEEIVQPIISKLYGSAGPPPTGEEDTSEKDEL
Protocol: Co-immunoprecipitation Assays—2×10⁶ cells were lysed in 400 μl of extraction buffer (50 mM Tris-HCl, pH 7.5, 150 mM NaCl, 0.5% Nonidet P-40, and 0.5% deoxycholate, with protease inhibitor tablet (Roche Molecular Biochemicals)) and frozen and thawed three times. 500 μg of total protein extract from each sample was pretreated with 50 μl of protein A-Sepharose beads (Sigma) for 1 h at 4° C. prior to incubation with 5 μg of either anti-caspase-7 mouse monoclonal antibody or anticaspase-3 antibodies for 2 h. Following the incubation period, 50 μl of protein A-Sepharose beads was added, and the mixtures were rotated at 4° C. overnight. The beads were then washed five times with the extraction buffer. The immunoprecipitate was released from the washed beads by the addition of 30 μl of 1×SDS-PAGE sample loading buffer (50 mM Tris-HCl, pH 6.8, 100 mM dithiothreitol, 2% SDS, 0.1% bromphenol blue, 10% glycerol), followed by heating at 100° C. for 10 min. The supernatant obtained after centrifugation was resolved by SDS-PAGE and subjected to Western blot analysis to detect the co-immunoprecipitated proteins.

CC[C@@]1(O)C(=O)OCc2c1cc1n(c2=O)Cc2cc3ccccc3nc2-1 [Camptothecin]
% Survival (Colony Assay) ([1]; camptothecin 5 ng/ml): 82%
% Survival (Colony Assay) ([1]; camptothecin 20 ng/ml): 22%
% Survival (Colony Assay) ([1]; camptothecin 60 ng/ml): 2%
effect of GRP78 overexpression on sensitivity to the drug [1]: confers resistance
% Survival (Colony Assay) (Control cells; camptothecin 5 ng/ml): 68%
% Survival (Colony Assay) (Control cells; camptothecin 20 ng/ml): 0.7%
% Survival (Colony Assay) (Control cells; camptothecin 60 ng/ml): 0%

N.N.[Cl][Pt][Cl] [Cisplatin]
% Survival (Colony Assay) ([1]; cisplatin 3.3 μM): 60%
% Survival (Colony Assay) ([1]; cisplatin 6.6 μM): 50%
% Survival (Colony Assay) ([1]; cisplatin 9.9 μM): 27%
% Survival (Colony Assay) ([1]; cisplatin 13.0 μM): 16%
effect of GRP78 overexpression on sensitivity to the drug [1]: confers resistance
% Survival (Colony Assay) (Control cells; cisplatin 3.3 μM): 43%
% Survival (Colony Assay) (Control cells; cisplatin 6.6 μM): 3.7%
% Survival (Colony Assay) (Control cells; cisplatin 9.9 μM): 0%
% Survival (Colony Assay) (Control cells; cisplatin 13.0 μM): 0%

COc1cccc2c1C(=O)c1c(O)c3c(c(O)c1C2=O)C[C@@](O)(C(=O)CO)C[C@@H]3O[C@H]1C[C@H](N)[C@H](O)[C@H](C)O1 [Doxorubicin]
% Survival (Colony Assay) ([1]; doxorubicin 0.2 μg/ml): 95%
% Survival (Colony Assay) ([1]; doxorubicin 0.4 μg/ml): 84%
% Survival (Colony Assay) ([1]; doxorubicin 0.6 μg/ml): 68%
% Survival (Colony Assay) ([1]; doxorubicin 0.8 μg/ml): 48%
% Survival (Colony Assay) ([1]; doxorubicin 1.0 μg/ml): 32%
effect of GRP78 overexpression on sensitivity to the drug [1]: confers resistance
% Survival (Colony Assay) (Control cells; doxorubicin 0.2 μg/ml): 80%
% Survival (Colony Assay) (Control cells; doxorubicin 0.4 μg/ml): 42%
% Survival (Colony Assay) (Control cells; doxorubicin 0.6 μg/ml): 2%
% Survival (Colony Assay) (Control cells; doxorubicin 0.8 μg/ml): 0%
% Survival (Colony Assay) (Control cells; doxorubicin 1.0 μg/ml): 0%

Nc1ncnc2c1ncn2[C@H]1C[C@H](O)[C@@H](COP(=O)(O)OP(=O)(O)OP(=O)(O)O)O1 [dATP]
caspase-7 forms in CHO versus C.1 extracts (caspase-7; 1 mM dATP with cytochrome c): equivalent amounts of the 32- and 20-kDa forms
effect on GRP78-mediated suppression of caspase-7 activation (caspase-7; C.1 extracts in the presence of both cytochrome c and dATP): suppressive effect of the C.1 samples was reversed

C/C=C(/C)C(=O)O[C@H]1C(C)=C2[C@H]([C@@H]1OC(=O)CCCCCCC)[C@@](C)(OC(C)=O)C[C@H](OC(=O)CCC)[C@@]1(O)[C@H]2OC(=O)[C@@]1(C)O [thapsigargin]
cell cycle distribution (CHO cells): more cells in G1 and a dramatic reduction in S phase cells
cell cycle distribution (T24/83 cells): a higher percentage of G1 cells and a lower percentage in S phase

Grp78(II) siRNA: siRNA duplex 5′ AAGGTTACCCATGCAGTTGTT 3′ (SEQ ID NO:4) and complement (SEQ ID NO:17) targeting GRP78 (antisense AACAACTGCATGGGTAACCTT; listed as DNA, chemistry not given here; listed as Homo sapiens)
cell death versus control siRNA against green fluorescence protein (MDA-MB-435 cells): more death
effect on GRP78, GRP94 and HSP70 levels (GRP78 [2]): only GRP78 level is suppressed
siRNA concentration that significantly suppresses GRP78 level (GRP78 [3]): ≥ 80 nM

tunicamycin
cell cycle distribution (CHO cells): more cells in G1 and a dramatic reduction in S phase cells
cell cycle distribution (T24/83 cells): a higher percentage of G1 cells and a lower percentage in S phase

B1: procaspase-3 (endogenous, CHO and C.1 cells) (enzyme)
chain: MENTENSVDSKSIKNLEPKIIHGSESMDSGISLDNSYKMDYPEMGLCIIVNNKNFHKSTGMTSRSGTDVDAANLRETFRNLKYGVRNKNDLTREGIVELMRDVSKEDHSKRSSFVCVLLSHGEEGIIFGTNGPVDLKKITNFFRGDRCRSLTGKPKLFIIQACRGTELDCGIETDSGVGDDMACHKIPVEADFLYAYSTAPGYYSWRNSKDGSWFIQSLCAMLKQYADKLEFMHILTRVNRKVATEFESFSFDATFHAKKQIPCIVSMLTKELYFYH
notes: Zymogen form, in whole cell extracts
binding result [4]: no binding
